The text below walks through data of patent US10202388B2, “Fused-ring compounds, pharmaceutical composition and uses thereof” (SHANGHAI DE NOVO PHARMATECH CO., LTD., priority 2015, dated 2019).

Some results are limits rather than exact numbers.

Test [1] addresses HeLa cell IDO1 (Homo sapiens (Human), UniProt P14902). The test can be described thus: HeLa cell based IDO1 inhibition assay (kynurenine readout, IFN-γ induced). The note with it: HeLa cells. How it is done:
HeLa cell line was purchased from ATCC, cultured in MEM/EBSS medium supplemented with 10% FBS, penn-step (100,000 U/L), non-essential amino acid (0.1 Mm), sodium pyruvate (1.0 Mm). Cells were cultured at 37° C., 95% humidity and 5% CO2. […] The detailed experimental method is as follow:
25,000 HeLa cells were placed on 96-well plates. Each well contained 100 μl culture medium, subsequently IFN-γ and test compounds at specific concentrations (concentration range between 10 μM and 1 Nm, so that the final volume of culture medium was 200 μL) were added and IFN-γ was used to induce IDO1 expression. After incubation, 140 μL supernatant was transferred to 96-well plates. After adding 6.1 N TCA (10 μL), the plates were continuously incubated at 50° C. for 30 min, to hydrolyze N-formylkynurenine produced by IDO to kynurenine. The reaction solution was then centrifuged at 2500 rpm for 10 min to remove precipitate. 100 μL/well supernatant was then transferred to another 96-well plate. 100 μL of 2% (w/v) 4-N,N-dimethyl aminobenzaldehyde acetic acid solution was added and incubated at room temperature for 10 min. The yellow color derived from kynurenine was recorded by measuring absorbance at 480 nm using a microplate reader (TECAN Infinite M1000 Pro).

For test [2], the target named is Human recombinant IDO1 (Homo sapiens (Human), UniProt P14902). The test can be described thus: IDO1 enzymatic assay (UV absorption at 321 nm). In kind it is biochemical. The following applies: human recombinant IDO1, 80 min incubation, room temperature; read-out: hIDO1 IC50. How it is done:
The detailed experimental method is as follow:
The compounds described in this disclosure were dissolved in 10% DMSO to predefined concentration. All of the reactions were conducted at room temperature in this disclosure. Human recombinant IDO1 (BPS Bioscience) was added so that its concentration was 200 nm in the reaction buffer solution (200 μL). […] 10 μL test compound solution was added into the above reaction solution (200 μL), so that the final concentration of DMSO in all reaction wells was 0.5%. % concentration was volume %. After 80 min incubation of the reaction solution, the UV absorbance was measured using TECAN Infinite M1000 plate reader. For the negative control (blank), 10 μl of the assay buffer was added instead of the IDO1
All reagents (excluding human recombinant IDO1) were purchased from Sigma Aldrich, MO, USA.
The percent activity in the presence of each compound was calculated according to the following equation: % activity=[(A−Ab)/(At−Ab)]×100, where A=the absorption signal in the presence of the compound, Ab=the absorption signal of blank, At=the absorption signal in the absence of the compound. […] The IC50 was calculated using non-linear regression in Graph Pad Prism® 4.

Test [3] deals with HeLa cell based IDO1 (Homo sapiens (Human), UniProt P14902). The test can be described thus: Three-point IDO1 cellular assay (HeLa, 10, 100 and 1000 nM). The following applies: HeLa cells, 100 ng/mL IFN-γ, 18 hours; for inhibition at 0.01 µM: at 10 nM; for inhibition at 0.1 µM: at 100 nM. How it is done:
To perform the 3-point HeLa cell based IDO1 assay, HeLa cells were seeded at 25,000 cells per well into 96-well microplate in 100 μL of growth medium. Cells were incubated at 37° C. and 5% CO2 overnight. The next day 100 μL per well of diluted inhibitor in growth medium at 10, 100 and 1000 nM, respectively, was added at a final concentration of 100 ng/ML human IFN-γ. Cells were incubated at 37° C. in a CO2 incubator for 18 hours. […] The plate was incubated at 50° C. for 30 min to hydrolyze N-formylkynurenine produced by IDO1 to kynurenine. The plate was then centrifuged at 2500 rpm for 10 min to remove sediments. 100 μl of supernatant per well was transferred to another 96-well plate and mixed with 100 μL of 2% (w/v) 4-(Dimethylamino) benzaldehyde in acetic acid. The plate was incubated at room temperature for 10 minutes, the yellow color derived from kynurenine was recorded by measuring absorbance at 480 nm using a microplate reader (TECAN Infinite M1000 Pro). Cell based assays were performed in triplicate at each concentration. The absorbance data were analyzed using the computer software, Graphpad Prism. In the absence of the compound and presence of 100 ng/ML IFN-γ, the absorbance (At) in each data set was defined as 100%. The absorbance of medium blank (Ab) in each data set was defined as 0%. The percent absorbance in the presence of each compound was calculated according to the following equation: % Absorbance=(A−Ab)/(At−Ab), where A=the absorbance in the presence of the compound and IFN-γ, Ab=the absorbance of medium blank, and At=the absorbance in the absence of the compounds and presence of IFN-γ. The values of % absorbance versus the compound concentrations were then determined.

Chain of HeLa cell based IDO1 (P14902 whole entry): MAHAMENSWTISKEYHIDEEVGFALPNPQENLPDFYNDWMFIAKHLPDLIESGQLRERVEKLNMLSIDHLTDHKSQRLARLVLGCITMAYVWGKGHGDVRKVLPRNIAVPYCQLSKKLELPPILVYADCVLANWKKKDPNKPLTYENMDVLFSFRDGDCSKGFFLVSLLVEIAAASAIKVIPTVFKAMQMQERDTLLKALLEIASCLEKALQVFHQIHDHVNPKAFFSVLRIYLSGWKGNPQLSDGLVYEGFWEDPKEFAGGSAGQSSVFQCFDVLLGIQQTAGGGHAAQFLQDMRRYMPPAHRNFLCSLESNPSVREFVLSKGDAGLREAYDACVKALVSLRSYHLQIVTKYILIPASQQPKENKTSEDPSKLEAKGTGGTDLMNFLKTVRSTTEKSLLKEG
Chain of HeLa cell IDO1 (P14902 whole entry): as above
Chain of Human recombinant IDO1 (P14902 whole entry): as above

As for `N#Cc1ccc(S(=O)(=O)NC23CC4CC(C2)C(C(O)CC2c5ccccc5-c5cncn52)C(C4)C3)cc1` (single isomer, unassigned) [Compound 165B], the IC50 in test [1] lay in the range of 0.5 to 1 µM. For the molecule `CC(=O)Nc1ccc(NC(=O)NC2C3CC4CC2CC(C(O)CC2c5ccccc5-c5cncn52)(C4)C3)cc1` (centres unmarked) [Compound 102], in test [1], the IC50 was in the range of 1 to 10 µM. The same measure, in the same setting: for `O=C(Nc1ccccc1)NC1C2CC3CC1CC(C(O)CC1c4c(F)cccc4-c4cncn41)(C3)C2` (single isomer, unassigned) [Compound 55A] the value was below 0.1 µM; for `OC(CC1c2ccccc2-c2cncn21)C12CC3CC(C1)C(Nc1nc4ccccc4s1)C(C3)C2` (single isomer, unassigned) [Compound 125B], below 0.1 µM; for `OC(CC1c2c(F)cccc2-c2cncn21)C12CC3CC(C1)C(Nc1nc4ccccc4o1)C(C3)C2` (centres unmarked) [Compound 124A], below 0.1 µM. For `OC1C2CC3CC1CC([C@H](O)CC1c4c(F)cccc4-c4cncn41)(C3)C2` (some centres unmarked) [Compound 23A-2], the IC50 in test [2] was in the range of 1 to 10 µM.

`CS(=O)(=O)NC12CC3CC(C1)C(C(O)CC1c4ccccc4-c4cncn41)C(C3)C2` (single isomer, unassigned) [Compound 168A] registered an IC50 in test [1] below 0.1 µM.

Molecule `OC(CC1c2ccccc2-c2cncn21)C12CC3CC(C1)C(Nc1nc4ccccc4o1)C(C3)C2` (centres unmarked) [Compound 123] returned an IC50 in test [1] below 0.1 µM. Still for that read-out and setting: the result for `CS(=O)(=O)NC12CC3CC(C1)C(C(O)CC1c4ccccc4-c4cncn41)C(C3)C2` (single isomer, unassigned) [Compound 168B] reads 1 to 10 µM; that for `O=S(=O)(NC1C2CC3CC1CC(C(O)CC1c4c(F)cccc4-c4cncn41)(C3)C2)c1ccccc1` (single isomer, unassigned) [Compound 47A], below 0.1 µM; that for `CS(=O)(=O)Nc1ccc(S(=O)(=O)NC2C3CC4CC2CC(C(O)CC2c5c(F)cccc5-c5cncn52)(C4)C3)cc1` (centres unmarked) [Compound 87], 0.5 to 1 µM. Still for that read-out and setting: the result for `O=C(Nc1ccccc1)NC1C2CC3CC1CC(C(O)CC1c4c(F)cccc4-c4cncn41)(C3)C2` (single isomer, unassigned) [Compound 55B] reads 0.1 to 0.5 µM; that for `O=S(=O)(Cc1ccc(F)cc1)NC1C2CC3CC1CC(C(O)CC1c4c(F)cccc4-c4cncn41)(C3)C2` (centres unmarked) [Compound 71], below 0.1 µM; that for `O=C(Nc1ccc(F)c(F)c1)NC1C2CC3CC1CC(C(O)CC1c4c(F)cccc4-c4cncn41)(C3)C2` (centres unmarked) [Compound 108A], below 0.1 µM. Same read-out and setting: for `CCS(=O)(=O)NC1C2CC3CC1CC(C(O)CC1c4c(F)cccc4-c4cncn41)(C3)C2` (centres unmarked) [Compound 66] the value was below 0.1 µM. Turning to `N#Cc1ccc(NC(=O)NC2C3CC4CC2CC(C(O)CC2c5c(F)cccc5-c5cncn52)(C4)C3)cc1` (centres unmarked) [Compound 100], the IC50 in test [1] was below 0.1 µM. In the case of `O=S(=O)(NC1C2CC3CC1CC(C(O)CC1c4c(F)cccc4-c4cncn41)(C3)C2)C1CC1` (centres unmarked) [Compound 81A], the IC50 in test [1] was below 0.1 µM. The same measure, in the same setting: for `O=C(Nc1ccccc1)NC12CC3CC(C1)C(C(O)CC1c4ccccc4-c4cncn41)C(C3)C2` (centres unmarked) [Compound 162A] the value was 0.1 to 0.5 µM; for `N#Cc1ccc(S(=O)(=O)NC2C3CC4CC2CC(C(O)CC2c5c(F)cccc5-c5cncn52)(C4)C3)cc1` (single isomer, unassigned) [Compound 69A], below 0.1 µM; for `CS(=O)(=O)c1ccc(NC(=O)NC2C3CC4CC2CC(C(O)CC2c5c(F)cccc5-c5cncn52)(C4)C3)cc1` (centres unmarked) [Compound 101], 0.1 to 0.5 µM. Same read-out and setting: for `O=S(=O)(NC1C2CC3CC1CC(C(O)CC1c4c(F)cccc4-c4cncn41)(C3)C2)c1ccccc1` (single isomer, unassigned) [Compound 47B] the value was below 0.1 µM; for `N#Cc1ccc(S(=O)(=O)NC23CC4CC(C2)C(C(O)CC2c5ccccc5-c5cncn52)C(C4)C3)cc1` (single isomer, unassigned) [Compound 165A], below 0.1 µM. On the same count and under the same terms, for `CC1(O)C2CC3CC1CC(C(O)CC1c4ccccc4-c4cncn41)(C3)C2` (centres unmarked) [Compound 11A] the value was below 0.1 µM; for `Cc1ccc(NC(=O)NC2C3CC4CC2CC(C(O)CC2c5c(F)cccc5-c5cncn52)(C4)C3)cc1` (centres unmarked) [Compound 97], below 0.1 µM; for `CCS(=O)(=O)NC12CC3CC(C1)C(C(O)CC1c4ccccc4-c4cncn41)C(C3)C2` (centres unmarked) [Compound 167A], 0.1 to 0.5 µM. In turn, `N#Cc1ccc(S(=O)(=O)NC2C3CC4CC2CC(C(O)CC2c5c(F)cccc5-c5cncn52)(C4)C3)cc1` (single isomer, unassigned) [Compound 69B] displayed an IC50 in test [1] of 0.5 to 1 µM. Regarding `O=C(Nc1ccccc1)N1C2CC3CC1CC(C(O)CC1c4c(F)cccc4-c4cncn41)(C3)C2` (centres unmarked) [Compound 208], the IC50 in test [1] was below 0.1 µM. As to `O=S(=O)(Cc1ccccc1)NC1C2CC3CC1CC(C(O)CC1c4ccccc4-c4cncn41)(C3)C2` (centres unmarked) [Compound 75A], the inhibition at 0.01 µM in test [3] was above 50%. The molecule `O=C(Nc1cccc2ccccc12)NC1C2CC3CC1CC(C(O)CC1c4c(F)cccc4-c4cncn41)(C3)C2` (centres unmarked) [Compound 109A] gave an inhibition at 1 µM in test [3] (at 1000 nM) above 50%. For the molecule `OC(CC1c2ccccc2-c2cncn21)C12CC3CC(C1)C(Nc1nc4ccccc4s1)C(C3)C2` (single isomer, unassigned) [Compound 125A], the IC50 in test [1] is below 0.1 µM. In the case of `O=S(=O)(c1ccccc1)N1C2CC3CC1CC(C(O)CC1c4c(F)cccc4-c4cncn41)(C3)C2` (centres unmarked) [Compound 206], the inhibition at 1 µM in test [3] (at 1000 nM) is above 50%.

For the molecule `O=C(NC1CC1)NC1C2CC3CC1CC(C(O)CC1c4c(F)cccc4-c4cncn41)(C3)C2` (centres unmarked) [Compound 106A], the inhibition at 1 µM in test [3] (at 1000 nM) was above 50%.

In the case of `O=S(=O)(CC1CCC1)NC1C2CC3CC1CC(C(O)CC1c4c(F)cccc4-c4cncn41)(C3)C2` (single isomer, unassigned) [Compound 67B], the IC50 in test [1] was below 0.1 µM.

On to `O=C(NC1CCCCC1)NC1C2CC3CC1CC(C(O)CC1c4c(F)cccc4-c4cncn41)(C3)C2` (centres unmarked) [Compound 96A], for which, in test [3], the inhibition at 0.1 µM was above 50%. The same measure, in the same setting: for `O=C(Nc1ccc(Br)cc1)NC1C2CC3CC1CC(C(O)CC1c4c(F)cccc4-c4cncn41)(C3)C2` (centres unmarked) [Compound 95A] the value was above 50%. As to `N#CC1C2CC3CC1CC(C(O)CC1c4c(F)cccc4-c4cncn41)(C3)C2` (centres unmarked) [Compound 76], the “inhibition values of %” value in test [3] (at 1000 nM) is reported as “greater than 50%”. The molecule `O=C(Nc1ccc(F)cc1)NC12CC3CC(C1)C(C(O)CC1c4ccccc4-c4cncn41)C(C3)C2` (centres unmarked) [Compound 163A] showed an inhibition at 0.1 µM in test [3] above 50%. On the same count and under the same terms, the result for `CS(=O)(=O)NC1C2CC3CC1CC(C(O)CC1c4c(F)cccc4-c4cncn41)(C3)C2` (centres unmarked) [Compound 46A] reads above 50%. `O=C(Nc1cccnc1)NC1C2CC3CC1CC(C(O)CC1c4c(F)cccc4-c4cncn41)(C3)C2` (centres unmarked) [Compound 56A]: the inhibition at 1 µM in test [3] (at 1000 nM) is above 50%. Molecule `Cc1ccc(CS(=O)(=O)NC2C3CC4CC2CC(C(O)CC2c5c(F)cccc5-c5cncn52)(C4)C3)cc1` (centres unmarked) [Compound 70A] showed an inhibition at 0.01 µM in test [3] above 50%. Consider `O=C(Nc1ccc(F)cc1)NC1C2CC3CC1CC(C(O)CC1c4c(F)cccc4-c4cncn41)(C3)C2` (centres unmarked) [Compound 93A], for which the IC50 in test [1] is below 0.1 µM.

For orientation: IC50 means the concentration that inhibits the measured activity by half. A word on the inhibition: it is the share of the control response that was lost under treatment.
